In patent publication US9284301B2, “Soluble guanylate cyclase activators” (Merck Sharp & Dohme Corp., priority 2010, dated 2016):

Target: T1, sGC α1/β1 heterodimer (Homo sapiens, UniProt Q02108+Q02153)
T1 construct: expressed in transfected cells; host or cells: CHO-K1 (clone #7, CHO-K1/sGC)
T1 sequence (Q02108 1-690): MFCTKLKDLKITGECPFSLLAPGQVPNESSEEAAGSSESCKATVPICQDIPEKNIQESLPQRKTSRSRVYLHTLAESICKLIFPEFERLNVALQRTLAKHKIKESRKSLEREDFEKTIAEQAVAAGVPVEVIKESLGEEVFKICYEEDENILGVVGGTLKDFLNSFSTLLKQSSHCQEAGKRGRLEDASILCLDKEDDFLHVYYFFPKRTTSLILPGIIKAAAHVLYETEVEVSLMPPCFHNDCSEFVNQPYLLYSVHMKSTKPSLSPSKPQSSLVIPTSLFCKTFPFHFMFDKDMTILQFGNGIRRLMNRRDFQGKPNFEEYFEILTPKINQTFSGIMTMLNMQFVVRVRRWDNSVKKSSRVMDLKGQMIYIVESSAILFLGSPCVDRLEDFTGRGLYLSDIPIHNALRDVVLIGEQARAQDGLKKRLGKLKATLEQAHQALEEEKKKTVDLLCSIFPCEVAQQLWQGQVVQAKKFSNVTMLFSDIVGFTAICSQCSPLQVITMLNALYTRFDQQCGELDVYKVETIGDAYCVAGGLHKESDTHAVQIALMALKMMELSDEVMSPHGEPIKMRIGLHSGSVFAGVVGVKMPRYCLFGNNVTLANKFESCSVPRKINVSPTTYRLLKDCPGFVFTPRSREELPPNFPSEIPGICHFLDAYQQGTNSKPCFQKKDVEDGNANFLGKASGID
T1 sequence (Q02153 1-619): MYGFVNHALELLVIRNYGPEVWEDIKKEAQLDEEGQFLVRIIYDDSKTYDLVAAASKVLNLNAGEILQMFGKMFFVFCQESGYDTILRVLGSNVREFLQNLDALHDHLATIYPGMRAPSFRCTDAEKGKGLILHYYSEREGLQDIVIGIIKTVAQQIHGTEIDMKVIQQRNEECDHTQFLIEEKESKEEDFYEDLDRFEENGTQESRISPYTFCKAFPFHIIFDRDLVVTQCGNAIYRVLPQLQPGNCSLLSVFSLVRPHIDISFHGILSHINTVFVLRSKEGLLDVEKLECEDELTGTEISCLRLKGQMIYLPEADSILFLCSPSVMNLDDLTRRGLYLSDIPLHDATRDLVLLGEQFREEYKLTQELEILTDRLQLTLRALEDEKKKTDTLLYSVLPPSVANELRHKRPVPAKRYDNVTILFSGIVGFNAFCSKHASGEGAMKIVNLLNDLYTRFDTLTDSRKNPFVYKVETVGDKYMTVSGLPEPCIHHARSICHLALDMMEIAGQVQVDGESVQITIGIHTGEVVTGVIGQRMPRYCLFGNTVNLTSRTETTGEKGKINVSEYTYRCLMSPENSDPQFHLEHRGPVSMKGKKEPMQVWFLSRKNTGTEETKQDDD
Test: Cell-based sGC Functional Assay (CASA Assay): cGMP generation in CHO-K1/sGC cells, HTRF readout
Details: without ODQ incubation; for EC50: read-out: IP (inflection point)
Excerpt: Cell-based sGC Functional Assay (CASA Assay) Rationale: sGC is a heme-containing enzyme that converts GTP to secondary messenger cGMP. Increases in cGMP levels affect several physiological processes including vasorelaxation through multiple downstream pathways. […] Heme-dependent activators (HDAs) preferentially activate sGC containing a ferrous Deme group. To determine the effect of sGC activators on enzyme activity, the CASA assay was developed to monitor the generation of cGMP in a cell line that stably expresses the heterodimeric sGC protein. Methods: A CHO-K1 cell line stably expressing the sGC α1/β1 heterodimer was generated using a standard transfection protocol. CHO-K1 cells were transfected with plasmids pIREShyghsGCα1 and pIRESneo-hsGCβ1 simultaneously using FUGENE reagent. Clones that stably express both subunits were selected with hygromycin and neomycin for ˜2 weeks. Clone #7 was chosen for the assay and was designated CHO-K1/sGC. CHO-K1/sGC cells were maintained in F-K12 medium containing 10% heat-inactivated Fetal Bovine Serum (FBS), 100 μg/mL penicillin/streptomycin, 0.5 mg/mL hygromycin and 0.25 mg/mL G418. On the day of the assay, cells were harvested in EBSS Assay Buffer (EAB) containing 5 mM MgCl2, 10 mM HEPES (4-(2-hydroxyethyl)piperazine-1-ethanesulfonic acid) and 0.05% BSA (bovine serum albumin) and cell density was adjusted to 2×10^6/mL with EAB. IBMX (3-isobutyl-1-methylxanthin, 0.5 mM) was added to inhibit degradation of cGMP. Compounds were diluted from DMSO stock solutions and added to the assay at a final DMSO concentration of 1%. Cells were incubated with compounds of the invention, in the presence and/or absence of 10 μM of 1H-(1,2,4)oxadiazolo(4,3-a) quinoxalin-1-one (ODQ), for 1 hr at 37° C. At the end of the incubation period, the reaction was terminated and the cells were lysed. The level of intracellular cGMP was determined using an HTRF-based assay kit (from CisBio, 62GM2PEC), which detects the displacement of a fluorescence labeled cGMP from its specific antibody. HTRF is a TR-FRET based technology that uses the principles of TRF and FRET. The amount of cGMP was plotted against compound concentration in PRISM software and the inflection point (IP) and maximum fold induction over DMSO control were derived from the plot.

Nc1nc(-c2nc(Cc3c(F)ccc(F)c3F)n3ncccc23)ncc1-c1cccc2ncccc12 [Example 7, 5-quinolin-5-yl-2-[7-(2,3,6-trifluorobenzyl)imidazo[1,5-b]pyridazin-5-yl]pyrimidin-4-amine]
Maximum fold induction over DMSO control: 129 fold
EC50: 0.296 µM

Nc1nc(-c2nc(Cc3c(F)ccc(F)c3F)n3cc(F)ccc23)ncc1-c1ccnc2ccc(F)cc12 [Example 73, 5-(6-fluoroquinolin-4-yl)-2-[6-fluoro-3-(2,3,6-trifluoro-benzyl)imidazo[1,5-a]pyridin-1-yl]pyrimidin-4-amine]
Maximum fold induction over DMSO control: 234 fold
EC50: 0.17 µM

Nc1nc(-n2nc(Cc3c(F)ccc(F)c3F)c3cc(Cl)ccc32)nc(N)c1NC(=O)C1CC1 [Example 178, N-{4,6-diamino-2-[5-chloro-3-(2,3,6-trifluorobenzyl)-1H-indazol-1-yl]pyrimidin-5-yl}cyclopropanecarboxamide]
Maximum fold induction over DMSO control: 74 fold
EC50: 0.524 µM

Nc1nc(-c2nc(Cc3c(F)ccc(F)c3F)n3cc(F)ccc23)ncc1-c1cccnc1 [Example 56, 2-[6-fluoro-3-(2,3,6-trifluorobenzyl)imidazo[1,5-a]pyridin-1-yl]-5-pyridin-3-ylpyrimidin-4-amine]
Maximum fold induction over DMSO control: 322 fold
EC50: 0.397 µM

Cc1cc(-c2cnc(-c3nc(Cc4c(F)ccc(F)c4F)n4ncccc34)nc2N)ccn1 [Example 4, 5-(2-methylpyridin-4-yl)-2-[7-(2,3,6-trifluorobenzyl)imidazo[1,5-b]pyridazin-5-yl]pyrimidin-4-amine]
Maximum fold induction over DMSO control: 55 fold
EC50: 0.178 µM

Nc1nc(-n2nc(CCC3CCCC3)c3ccccc32)nc(N)c1-c1cccnc1 [Example 208, 2-[3-(2-cyclopentylethyl)-1H-indazol-1-yl]-5-pyridin-3-ylpyrimidine-4,6-diamine]
Maximum fold induction over DMSO control: 244 fold
EC50: 0.54 µM

Cn1cc(-c2c(N)nc(-n3nc(Cc4c(F)ccc(F)c4F)c4cc(Cl)ccc43)nc2N)cn1 [Example 83, 2-[5-chloro-3-(2,3,6-trifluorobenzyl)-1H-indazol-1-yl]-5-(1-methyl-1H-pyrazol-4-yl)pyrimidine-4,6-diamine]
Maximum fold induction over DMSO control: 127 fold
EC50: 0.034 µM

Cc1c(-c2cnc(-c3nc(Cc4c(F)ccc(F)c4F)n4ncccc34)nc2N)c(C(F)(F)F)nn1C [Example 3, 5-[1,5-dimethyl-3-(trifluoromethyl)-1H-pyrazol-4-yl]-2-[7-(2,3,6-trifluorobenzyl)imidazo[1,5-b]pyridazin-5-yl]pyrimidin-4-amine]
Maximum fold induction over DMSO control: 71 fold
EC50: 0.499 µM
